Laboratory results published in patent publication US5834459A, “Alkyl-substituted compounds having dopamine receptor affinity” (Allelix Biopharmaceuticals Inc., priority 1996, dated 1998).

Columns and labels:
[1] = molecular target: T1, human D4 receptor (D4.2 sub-type) (Homo sapiens, UniProt P21917, DEL265-296); assay: Receptor Binding Assay: displacement of 3H-spiperone, D4 receptor; conditions: for Ki: 3H-spiperone displacement, HEK 298 cells transfected with human D4.2, read-out: Ki (D4 affinity)
T1 construct: expressed in transfected cells; cell homogenate
T1 sequence (P21917 with tags, fused parts or gaps DEL265-296): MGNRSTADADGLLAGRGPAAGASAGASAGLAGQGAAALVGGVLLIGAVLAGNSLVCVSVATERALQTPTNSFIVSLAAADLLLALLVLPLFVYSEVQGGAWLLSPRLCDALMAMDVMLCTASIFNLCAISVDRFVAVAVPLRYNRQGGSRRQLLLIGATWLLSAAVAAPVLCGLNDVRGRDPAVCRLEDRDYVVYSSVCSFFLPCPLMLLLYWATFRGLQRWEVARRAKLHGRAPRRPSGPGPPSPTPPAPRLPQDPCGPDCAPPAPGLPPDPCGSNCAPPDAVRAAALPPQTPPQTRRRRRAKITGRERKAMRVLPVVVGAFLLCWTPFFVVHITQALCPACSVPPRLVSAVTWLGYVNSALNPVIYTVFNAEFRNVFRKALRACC
Protocol: (§1) The potency of the test compound to reduce ^3 H-spiperone binding directly correlated to its binding affinity for the receptor.
The cells were then centrifuged in a Sorval centrifuge for 10 minutes, 5000 rpm (GS3 rotor) and the pellets quickly frozen in liquid nitrogen and stored at -80° C. until used in binding assay. When used in the assay, cells were thawed on ice for 20 minutes and then 10 mL of incubation buffer (50 mM Tris, 1 mM EDTA, 4 mM MgCl2, 5 mM KCl, 1.5 mM CaCl2, 120 mM NaCl, pH7.4) was added. […] Concentration of receptor protein was determined using the Pierce BCA assay.
(§2) The tubes were vortexed and incubated at room temperature for 90 minutes. The binding reaction was stopped by filtering using a Brandell Cell Harvester. The samples were filtered under vacuum over glass fibre filters (Whatman GF/B) presoaked for 2 hours in 0.3% polyethylenimine (PEI) in 50 mM Tris buffer (pH7.4). The filters were then washed 3 times with 5 mL ice cold 50 mM Tris buffer (pH7.4). Individual filter disks were put in scintillation vials (Biovials, Bechman). Ready Protein Plus liquid scintillant (5 mL, Beckman) was added and the vials counted by liquid scintillation spectrophotometry (Beckman LSC 6500) after equilibrating for three hours at room temperature to determine total binding (BT).
The tubes were vortexed and incubated at room temperature for 90 minutes at which time the binding reaction was stopped by filtering. The filters were washed and counted using the same procedure as in the total binding assay described above to give the non-specific binding value (NSB).
(§3) The incubation was started by the addition to 12×75 mm polypropylene tubes 500 μl (50 μg protein) membrane homogenate to a solution of 400 μl incubation buffer, 100 μl (0.25 final conc.) ^3 H-spiperone (90 Ci/mmol, Amersham, diluted in borosilicate glass vial to) and […] of test compound that was prepared from 1 mM stock dissolved in DMSO and stored at -20° C. in polypropylene cryogenic storage vials until dilution in incubation buffer in borosilicate glass vials. The tubes were vortexed and incubated at room temperature for 90 minutes at which time the binding reaction was stopped by filtering. The filters were washed and counted using the same procedure as in the total binding assay described above to give the displacement binding value (BD).
(§4) IC50 was determined from an inhibition response curve, logit-log plot of %B/BO vs concentration of test compound.
(§5) Ki was calculated by the Cheng and Prustoff transformation: […]
(§6) where [L] is the concentration of ^3 H-spiperone used in the assay and KD is the dissociation constant of ^3 H-spiperone determined independently under the same binding conditions.

[2] = molecular target: human D2 receptor (short isoform) (Homo sapiens, UniProt P14416); assay: Receptor Binding Assay: displacement of 3H-spiperone, D2 receptor, for D2/D4 selectivity; conditions: for D2/D4 (selectivity): ratio D2/D4, GH4 C1 cells with human D2 short vs HEK 298 cells with human D4.2, 3H-spiperone
Protocol: as §1
GH4 C1 (rat pituitary) cells stably transfected with the human D2 receptor (short isoform) were grown in CO2 independent media in roller bottles (1500 cm^2) for 10 days. 100 μM ZnSO4 was added to the cells (the D2 promoter being zinc inducible). After 16 hours, fresh media was added to allow the cells to recover for 24 hours. The cells were harvested using versene and then centrifuged in a Sorval centrifuge for 10 minutes, at 5000 rpm (GS3 rotor). Pellets were quickly frozen in liquid nitrogen and stored at -80° C. until used in the binding assays. When used in the assay, cells were thawed on ice for 20 minutes. […] The receptor protein concentration was determined using the Pierce BCA assay.
as §2
This assay employed the same procedures as the non-specific binding assay for D4 with the exception that 2 μM (final conc.) of (-) sulpiride (Research Chemicals Inc.) was used in place of dopamine.
as §3, §4, §5, §6

D2 receptor = conditions: background; both products; cited from earlier work
D4 receptor = conditions: background; both products approximately; cited from earlier work

Sequence of human D2 receptor (short isoform) (P14416 with tags, fused parts or gaps DEL242-270): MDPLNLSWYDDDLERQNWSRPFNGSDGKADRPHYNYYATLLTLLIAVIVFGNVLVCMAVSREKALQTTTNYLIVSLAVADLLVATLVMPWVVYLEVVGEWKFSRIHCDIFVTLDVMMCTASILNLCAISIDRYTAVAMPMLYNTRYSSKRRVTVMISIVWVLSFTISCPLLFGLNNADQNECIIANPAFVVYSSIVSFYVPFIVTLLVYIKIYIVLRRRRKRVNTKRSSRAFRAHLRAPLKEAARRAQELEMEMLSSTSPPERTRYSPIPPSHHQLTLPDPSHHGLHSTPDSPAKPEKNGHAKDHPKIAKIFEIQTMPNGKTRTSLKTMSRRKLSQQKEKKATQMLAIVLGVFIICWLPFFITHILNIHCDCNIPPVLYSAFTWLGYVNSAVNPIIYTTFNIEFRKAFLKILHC

| SMILES | Ki [1] [nM] | D2/D4 (selectivity) [2] | D4 selectivity relative to the D2 receptor (in words) [2] | D4 affinity compared with clozapine (in words) [1] | D4 selectivity compared with clozapine (in words) [2] | preference for binding the D4 receptor relative to the D2 receptor (D2 receptor) | Ki (D4 receptor) [nM] |
| --- | --- | --- | --- | --- | --- | --- | --- |
| CN1CCN(C2=Nc3cc(Cl)ccc3Oc3ccccc32)CC1 [isoloxapine] | – | – | – | – | – | about 10 fold | ~20 |
| CCCCCCCN1CCN(C2=Nc3ccccc3Oc3ccccc32)CC1 [11-(4-heptyl-1-piperazinyl)dibenz[b,f][1,4]oxazepine] | – | – | bind to the D4 receptor selectively relative to the D2 receptor | – | – | – | – |
| CCCCCCCCCN1CCN(C2=Nc3ccccc3Oc3c(Cl)cccc32)CC1 [4-chloro-11-(4-nonyl-1-piperazinyl)dibenz[b,f][1,4]oxazepine] | 229 | 3.9 | bind to the D4 receptor selectively relative to the D2 receptor | – | better D4 selectivity than clozapine | – | – |
| CCCCCCCCN1CCN(C2=Nc3ccccc3Oc3ccccc32)CC1 [11-(4-octyl-1-piperazinyl)dibenz[b,f][1,4]oxazepine] | – | – | bind to the D4 receptor selectively relative to the D2 receptor | – | – | – | – |
| CCCCCCN1CCN(C2=Nc3ccccc3Oc3c(Cl)cccc32)CC1 [4-chloro-11-(4-hexyl-1-piperazinyl)dibenz[b,f][1,4]oxazepine] | 32 | 31.8 | bind to the D4 receptor selectively relative to the D2 receptor | – | better D4 selectivity than clozapine | – | – |

More lines, main results first:

| Ki [1] [nM] | D2/D4 (selectivity) [2] | SMILES | D4 selectivity relative to the D2 receptor (in words) [2] | D4 affinity compared with clozapine (in words) [1] | D4 selectivity compared with clozapine (in words) [2] | preference for binding the D4 receptor relative to the D2 receptor (D2 receptor) | Ki (D4 receptor) [nM] |
| --- | --- | --- | --- | --- | --- | --- | --- |
| 109 | 3.9 | CCCCCCCCCN1CCN(C2=Nc3ccccc3Oc3ccccc32)CC1 [11-(4-nonyl-1-piperazinyl)dibenz[b,f][1,4]oxazepine] | bind to the D4 receptor selectively relative to the D2 receptor | – | – | – | – |
| 18 | 30.0 | CCCCCCCCCN1CCN(C2=Nc3cc(Cl)ccc3Oc3ccccc32)CC1 [8-chloro-11-(4-nonyl-1-piperazinyl)dibenz[b,f][1,4]oxazepine] | bind to the D4 receptor selectively relative to the D2 receptor | better D4 affinity and selectivity than clozapine | better D4 affinity and selectivity than clozapine | – | – |
| 22 | 20.0 | CCCCCCN1CCN(C2=Nc3ccccc3Oc3ccccc32)CC1 [11-(4-hexyl-1-piperazinyl)dibenz[b,f][1,4]oxazepine] | bind to the D4 receptor selectively relative to the D2 receptor | better D4 affinity and selectivity than clozapine | better D4 affinity and selectivity than clozapine | – | – |
